According to patent US20260207618A1, “PYRIMIDINE CARBOXAMIDE COMPOUNDS” (Acrivon Therapeutics, Inc., priority 2022, published 2026):

Assays:
[1] = test system: Cdk1 phosphorylated on tyrosine 15; assay: High-content imaging of pCdk1 Y15 by immunofluorescence in ACHN cells; format: cell-based; details: Homo sapiens, high-content imaging (IF), 4 h, 7 to 5000 nM, read-out: CDK1 Tyr15 Phosphorylation EC50 (IC50)
Description: ACHN renal cell carcinoma cell line (ATCC) was cultured in Minimum Essential Medium Eagle supplemented with 10% fetal calf serum (Sigma), 1% Penicillin-Streptomycin and 10 mM HEPES buffer (HyClone). Cell cultures were kept in a humidified incubator at 37° C. and 5% CO2. Cells were routinely tested for Mycoplasma contamination.
High-content imaging of ACHN renal cell carcinoma cells was used for quantification of CDK1 phosphorylated on tyrosine 15 by immunofluorescence (“IF”). 20 000 cells per well were seeded in tissue culture treated 96 well plates and treated with compounds at concentrations ranging from 7 to 5000 nM for 4 h. Cells were fixated for 15 minutes in 4% paraformaldehyde solution, washed in PBS and permeabilized using 0.2% Triton X-100. Blocking was performed for 1 h at RT using Blocker FL Fluorescent Blocking Buffer (Thermo Scientific), thereafter cells were incubated with primary antibody (rabbit anti-pCDK1 Y^15, #4539, Cell Signaling Technology) at 4° C. ON. Alexa Fluor Plus 647 labelled goat anti-rabbit (A32733. Thermo Scientific) was used as secondary antibody. After washing in PBS, nuclei were stained with DAPI solution for 10 min at RT, protected from light. Cells were imaged using an ImageXpress Pico automated imaging system and CellReporter Xpress software (Molecular Devices). The percentage cells with nuclear positivity for pCdk1 Y^15 compared to DMSO control was determined for each well and drug dose response curves and EC50 values were calculated and visualized using GraphPad Prism.

[2] = molecular target: T1, recombinant human Wee1A kinase (Homo sapiens, UniProt P30291); assay: LanthaScreen Europium (Eu) Kinase Binding Assay, Wee1A kinase (TR-FRET tracer displacement); details: 30 nM tracer 178, 5 nM Wee1A kinase, 60 minutes at room temperature
T1 construct: full length Wee1A kinase was expressed by baculovirus in insect cells; purchased Invitrogen PV3817; host or cells: insect cells (baculovirus)
T1 sequence (P30291 whole entry): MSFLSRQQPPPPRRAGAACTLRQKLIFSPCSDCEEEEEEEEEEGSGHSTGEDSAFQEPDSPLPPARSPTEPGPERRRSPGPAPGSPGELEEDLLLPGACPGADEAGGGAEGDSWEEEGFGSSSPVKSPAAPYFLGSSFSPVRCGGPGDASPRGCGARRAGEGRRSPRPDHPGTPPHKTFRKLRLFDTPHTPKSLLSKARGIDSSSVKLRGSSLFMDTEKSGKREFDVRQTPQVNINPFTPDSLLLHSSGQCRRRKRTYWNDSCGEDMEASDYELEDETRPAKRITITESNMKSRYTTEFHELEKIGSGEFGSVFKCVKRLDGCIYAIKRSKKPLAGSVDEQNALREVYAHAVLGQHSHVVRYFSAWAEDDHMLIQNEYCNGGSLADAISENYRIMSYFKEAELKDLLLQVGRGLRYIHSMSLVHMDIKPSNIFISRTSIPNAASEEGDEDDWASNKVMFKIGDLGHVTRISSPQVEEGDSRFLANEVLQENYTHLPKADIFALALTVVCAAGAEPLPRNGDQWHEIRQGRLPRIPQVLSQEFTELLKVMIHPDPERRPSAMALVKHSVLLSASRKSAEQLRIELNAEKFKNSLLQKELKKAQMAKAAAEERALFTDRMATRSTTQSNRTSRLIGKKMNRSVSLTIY
Text: We used a LanthaScreen Europium (Eu) Kinase Binding Assay to determine the binding of provided compounds to Wee1A kinase. The assay utilizes an Alexa Fluor 647-labeled ATP competitive kinase tracer that binds to the ATP binding site of a GST-tagged Wee1A kinase, while a europium (Eu) labeled antibody binds to the GST tag. The proximity of fluorescently labeled kinase tracer and europium (Eu) donor fluorophore antibody leads to fluorescence resonance energy transfer (FRET) to the fluorescence label (acceptor) upon excitation of the Eu (donor). Displacement of tracer from the ATP-binding site by a test compound disturbs the proximity between both labels thus lowering the FRET.
This time resolved-FRET binding assay was performed in white 384-well low volume plates (Greiner, cat #784075), at room temperature in kinase buffer A (KBA; Invitrogen cat #PV3189), consisting of 50 mM HEPES-NaOH (pH 7.5), 0.01% Brij-35, 10 mM MgCl2, and 1 mM EGTA. 5 μl of compound (diluted in reaction buffer, to 1% DMSO) were added to various wells in the plate, followed by 5 μl each of recombinant human Wee1A kinase (full length Wee1A kinase was expressed by baculovirus in insect cells using a N-terminal GST tag (MW: 99.1 kDa) (Invitrogen cat #PV3817) and LanthaScreen Eu-anti-GST antibody (Invitrogen, cat #PV5594). After this, 5 μl of kinase tracer 178 (Invitrogen, cat #PV5593) was added to the plate and the plate was incubated for 60 minutes at room temperature. The final assay conditions in each well were: 30 nM tracer 178, 5 nM Wee1A kinase and 2 nM Eu-labeled antibody in total assay volume of 15 μl. An Envision 2104 (Perkin-Elmer) Plate Reader with the following time-resolve fluorescence setting was used for performing LanthaScreen kinase binding assay. • Excitation 320 nm (30 nm bandpass) • Kinase Tracer Emission 665 nm (10 nm bandpass) • LanthaScreen Eu-anti-Tag Antibody Emission 615 nm (10 nm bandpass) • Dichroic Mirror Instrument dependent • Delay Time 100 μs • Integration Time 200 μs
To calculate the emission ratio, the acceptor/tracer emission ([…]) was divided by the antibody/donor emission ([…]) and the average of duplicate measurement was used for calculations. Data plotting, analysis of binding, and curve fitting was done using Excel add-in XLfit version 5.5.0.5 (IDBS, Guildford, United Kingdom).

| Structure (SMILES) | EC50 [1] | IC50 [2] |
| --- | --- | --- |
| COc1nc(Nc2ccc(N3CCN(C)CC3)cc2)ncc1C(=O)Nc1c(Cl)cccc1Cl [Compound 111, N-(2,6-dichlorophenyl)-4-methoxy-2-((4-(4-methylpiperazin-1-yl)phenyl)amino)pyrimidine-5-carboxamide] | 100 to 500 nM | ≤ 10 nM |
| COc1nc(Nc2ccc(C3CCN(C)CC3)c(C)c2)ncc1C(=O)Nc1ccccc1C(F)(F)F [Compound 114, 4-methoxy-2-((3-methyl-4-(1-methylpiperidin-4-yl)phenyl)amino)-N-(2-(trifluoromethyl)phenyl)pyrimidine-5-carboxamide] | > 1000 nM | ≤ 10 nM |
| COc1nc(Nc2ccc(C3CCN(C)CC3)c(C)c2)ncc1C(=O)Nc1c(Cl)cc(F)cc1Cl [Compound 121, N-(2,6-dichloro-4-fluorophenyl)-4-methoxy-2-((3-methyl-4-(1-methylpiperidin-4-yl)phenyl)amino)pyrimidine-5-carboxamide] | 100 to 500 nM | ≤ 10 nM |
| CN1CCN(c2ccc(Nc3ncc(C(=O)Nc4c(Cl)cccc4Cl)c(OCCO)n3)cc2)CC1 [Compound 123, N-(2,6-dichlorophenyl)-4-(2-hydroxyethoxy)-2-((4-(4-methylpiperazin-1-yl)phenyl)amino)pyrimidine-5-carboxamide] | > 1000 nM | 10 to 100 nM |
| COc1nc(Nc2ccc(C3CCN(C)CC3)c(C)c2)ncc1C(=O)Nc1c(Cl)ccc(F)c1F [Compound 125, N-(6-chloro-2,3-difluorophenyl)-4-methoxy-2-((3-methyl-4-(1-methylpiperidin-4-yl)phenyl)amino)pyrimidine-5-carboxamide] | > 1000 nM | ≤ 10 nM |
| COc1nc(Nc2ccc(C3CCN(C)CC3)c(C)c2)ncc1C(=O)Nc1c(F)cc(F)cc1Cl [Compound 127, N-(2-chloro-4,6-difluorophenyl)-4-methoxy-2-((3-methyl-4-(1-methylpiperidin-4-yl)phenyl)amino)pyrimidine-5-carboxamide] | 100 to 500 nM | ≤ 10 nM |
| COc1nc(Nc2ccc(C3CCN(C)CC3)c(C)c2)ncc1C(=O)Nc1c(F)ccc(F)c1Cl [Compound 128, N-(2-chloro-3,6-difluorophenyl)-4-methoxy-2-((3-methyl-4-(1-methylpiperidin-4-yl)phenyl)amino)pyrimidine-5-carboxamide] | 100 to 500 nM | ≤ 10 nM |

The next lines start with the values.

| EC50 [1] | IC50 [2] | Structure (SMILES) |
| --- | --- | --- |
| 100 to 500 nM | ≤ 10 nM | COc1nc(Nc2ccc(C3CCN(C)CC3)c(C)c2)ncc1C(=O)Nc1c(C)cccc1Br [Compound 108, N-(2-bromo-6-methylphenyl)-4-methoxy-2-((3-methyl-4-(1-methylpiperidin-4-yl)phenyl)amino)pyrimidine-5-carboxamide] |
| 100 to 500 nM | ≤ 10 nM | COc1nc(Nc2ccc(C3CCN(C)CC3)c(C)c2)ncc1C(=O)Nc1c(F)cccc1Cl [Compound 113, N-(2-chloro-6-fluorophenyl)-4-methoxy-2-((3-methyl-4-(1-methylpiperidin-4-yl)phenyl)amino)pyrimidine-5-carboxamide] |
| > 1000 nM | ≤ 10 nM | COc1nc(Nc2ccc(C3CCN(C)CC3)c(C)c2)ncc1C(=O)Nc1c(C)cccc1C(F)(F)F [Compound 120, 4-methoxy-2-((3-methyl-4-(1-methylpiperidin-4-yl)phenyl)amino)-N-(2-methyl-6-(trifluoromethyl)phenyl)pyrimidine-5-carboxamide] |
| > 1000 nM | ≤ 10 nM | COc1cccc(Cl)c1NC(=O)c1cnc(Nc2ccc(C3CCN(C)CC3)c(C)c2)nc1OC [Compound 130, N-(2-chloro-6-methoxyphenyl)-4-methoxy-2-((3-methyl-4-(1-methylpiperidin-4-yl)phenyl)amino)pyrimidine-5-carboxamide] |
| 100 to 500 nM | ≤ 10 nM | CCc1cccc(Cl)c1NC(=O)c1cnc(Nc2ccc(C3CCN(C)CC3)c(C)c2)nc1OC [Compound 132, N-(2-chloro-6-ethylphenyl)-4-methoxy-2-((3-methyl-4-(1-methylpiperidin-4-yl)phenyl)amino)pyrimidine-5-carboxamide] |
